Results: patent publication US20060281807A1, “Quassinoid compositions for the treatment of cancer and other proliferative diseases” (Tapestry Pharmaceuticals, Inc., priority 2005, published 2006)
Values after ≈ are worked out from the molar mass of the structure shown. Values joined by “and” are separate entries in the source; they are usually repeats but may differ in a detail not shown here. Equal entries are not always repeated.

Columns and labels:
SK-N-AS = assay: MTT cytotoxicity assay (% kill), SK-N-AS; assay type: cell-based, human; conditions: 1.0 μg/mL, MTT after five days
Method: (§1) The following human tumor cell lines were obtained and cultured in sextuplicate microwells at 37° C. and 5% CO2 in humidified air and in 10% FBS in Eagles MEM: SK—N—FI, SK—N-AS, LS-174T, WiDr, HuTu-80, MCF7, NCI-AR, MES-Sar, and PL-45. Cells from each cell line were separately treated with an amount of one of the compounds of Formula I, II, or III (see Table 1). Cells were exposed to each compound (0.1 μg/mL or 1.0 μg/mL) for one hour or 24 hours, rinsed with drug-free media, and incubated for an additional five days. The number of viable cells after five days was measured using an MTT (3-(4,5-dimethylthiazol-2-yl)-2,5-diphenyltetrazolium bromide) assay (see, e.g., Mosmann, J. Immunol. Methods, 65(1-2), 55-63 (1983)).
(§2) The cytotoxicity of each drug was determined and expressed as the percent of cells killed (“% kill”).

LS-174T = assay: MTT cytotoxicity assay (% kill), LS-174T; assay type: cell-based, human; conditions: 1.0 μg/mL, MTT after five days
Method: as §1, §2

[1] = test system: Colon 38 (murine colon adenocarcinoma); assay: Disk diffusion assay, zone of inhibition, Colon 38; zone differentials, potency and product; assay type: cell-based; parameters: key to C38ΔL1210 / C38ΔCFU: difference of zone of inhibition values, in zone units; conditions: for Sum: C38ΔL1210 plus C38ΔCFU; for C38ΔL1210 / C38ΔCFU: difference between zone of inhibition values; for C38ΔL1210: Colon38 vs L1210 leukemia; for C38ΔCFU: Colon38 vs normal cell CFU-GM; for Product: potency multiplied by zone differentials; for zone of inhibition, Colon 38: 1 mg/mL
Method: (§3) A disk diffusion assay was performed to define the differential cell killing ability of 15-O-(3′-hydroxy-3′-isopropyl-4′-methylpentanoyl)bruceolide. Seven cell types were assayed: L1210 (ATCC CCL-219) (murine leukemia), CCRF-CEM (ATCC CCL-119) (human leukemia), Colon 38 (murine colon adenocarcinoma), HCT116 (ATCC CCL-247) (human colorectal carcinoma), H125 (human lung carcinoma). The murine and human granulocyte/macrophage progenitor cell line (CFU-GM), served as controls.
(§4) Colon 38 cells (about 1 gram) were cut into small fragments in 15 mL of Hank's Balanced Salt Solution (HBSS) over a 100-mesh sieve and gently forced through by the scissors with HBSS constantly perfusing the sieve. The resulting material was then drawn into and out of a 5 mL syringe without a needle to further disperse the cell clumps. The cell solution was diluted and plated in 0.3% agarose in DMEM plus 10% heat-inactivated Bovine Calf Serum (BCS). For plating of all of the cell types (except controls), the 60 mm plates were first prepared with a hard agar bottom layer (0.6% agar in RPMI-1640 plus 15% BCS).
(§5) A 15 μl sample of each compound was dropped onto a 6.5 mm disk (Baxter filter disks). The disks were allowed to dry overnight and then placed close to the edge of a petri dish. Depending upon the cell type, the dishes were incubated for 7 to 10 days, and examined by an inverted stereo-microscope (10×) for measurement of the zone of inhibition. The zone of inhibition was measured from the edge of the filter disk to the beginning of normal-sized colony formation. The diameter of the filter disk, 6.5 mm, was arbitrarily taken as a zone of 200 units. Compounds that were selective for killing solid tumors, as compared to leukemia or normal cells (“solid tumor selective”) were defined as those compounds which produced a difference in zones between solid tumor cells and either normal or leukemia cells of at least 250 units. The results of this analysis are set forth in Table 4, which illustrates the relative diameters of the zones of inhibition by various drugs on the growth of the respective cell types at various drug dilutions.
The degree of differential sensitivity of several inventive compounds was compared with respect to the Colon38 cell line, the L1210 cell line, and the control CFU-GM cell lines. The degree of differential sensitivity was estimated by calculating the difference between the zone of inhibition values, as determined in Example 6, for the solid tumor compared to either the leukemia (C38ΔL1210) or normal cell (C38ΔCFU).
The potency of each of several inventive compounds was determined by identifying the dilution required to yield an average zone of inhibition of 500 units for the Colon38 cell type. Then the potency and the zone differentials were multiplied to define a “product” (see Table 5), which can be used to rank the compounds tested for their potential for further development; the greater the product value the greater the probability of useful chemotherapeutic utility.

L1210 (murine leukemia) = assay: Disk diffusion assay, zone of inhibition, L1210; assay type: cell-based; conditions: 1 mg/mL
Method: as §3, §4, §5

[2] = test system: HCT116 (human colorectal carcinoma); assay: Disk diffusion assay, zone of inhibition, HCT116; assay type: cell-based; conditions: 1 mg/mL
Method: as §3, §4
(§6) HCT116 and H125 cells were maintained in cell culture, and were removed from culture by a trypsin-collagenase-DNAase cocktail. The plating efficiencies of each cell type was sufficiently high that 30,000 cells in 3 mL produced the desired number of colonies (i.e., over 10,000 per plate) in 60 mm plates. This soft agar top layer (0.3% with the serum and media as above) plus the titrated tumor cells were poured into the plates and allowed to solidify.
as §5

[3] = test system: H125 (human lung carcinoma); assay: Disk diffusion assay, zone of inhibition, H125; assay type: cell-based; conditions: 1 mg/mL
Method: as §3, §4, §6, §5

[4] = test system: CCRF-CEM (human leukemia); assay: Disk diffusion assay, zone of inhibition, CCRF-CEM; assay type: cell-based; conditions: 1 mg/mL
Method: as §3, §4, §5

murine CFU-GM = assay: Disk diffusion assay, zone of inhibition, murine CFU-GM; assay type: cell-based; conditions: 1 mg/mL
Method: as §3
For CFU-GM cells, the femoral marrow of BD2F1 mice was flushed with MEM alpha (2 mL per femur). The cells were passed through an 18 gauge needle twice and the monodispersed suspension was counted. A total of 1.5×10^6 cells were plated in 3 mL of 0.3% agar with the addition of 10% L cell conditioned media, which provided colony stimulating factor, in MEM-alpha plus 10% BCS. For human CFU-GM, the cells were obtained from Poietic Technologies, Inc. (Gaithersburg, Md.) and washed twice with PBS before being titered and added to the agar mixture. The same cell number, culture conditions, and conditioning factors used with respect to the murine CFU-GM cells were used with the human cells, except that the cultures were assessed after 10 days of incubation.
as §5

HCT-116 cells [5] = assay: HCT-116 cytotoxicity, viable cell count by trypan blue; assay type: cell-based, human
HCT-116 cells [6] = assay: Clonogenic assay, HCT-116; assay type: cell-based, human; conditions: colonies at 7 days
Method: A clonogenic assay was performed using HCT-116 cells. Specifically, HCT-116 cells were seeded at 200 to 20,000 cells in 60 mm dishes. […] At either 2 hours or 24 hours following drug administration, the drug-containing media was removed, and fresh media without drug was added. In addition, one group of cells was subjected to continuous drug exposure for the entire incubation period. The dishes were incubated for 7 days (at 37° C. and 5% CO2), media was removed, and the colonies were stained with methylene blue. Colonies containing 50 cells or more were counted. The results were normalized to an untreated control. Plating efficiency for the untreated cells was about 90%. Repeat experiments also were carried out to define the cell survival range between 1 (100%) and 10^−3 (0.1%) survival. A survival rate of 10^−1 was chosen as the minimal level that would be required in vivo to achieve therapeutic efficacy against HCT-116 cells in tumor-bearing mice. The clonogenic dose response to 15-O-(3′-hydroxy-3′-isopropyl-4′-methylpentanoyl)bruceolide is illustrated in FIG. 4. The clonogenic dose response to 15-(3-isopropyl-4-methyl-2-pentenoyl)-bruceolide is illustrated in FIG. 5.

[7] = no dilution, 15 μl on disk, 6.5 mm = 200 units

## COC(=O)C12OCC34C(CC5C(C)=C(O)C(=O)CC5(C)C3C(O)C1O)OC(=O)C(OC(=O)CC1(O)CCCCC1)C24 (centres unmarked) [15-O-[(1′-hydroxycyclohexyl)-acetyl]-bruceolide]
SK-N-AS; 1 h exposure
  % Kill, SK-N-AS: 16%
SK-N-AS; 24 h exposure
  % Kill, SK-N-AS: 80%
LS-174T; 1 h exposure
  % Kill, LS-174T: 23%
LS-174T; 24 h exposure
  % Kill, LS-174T: 62%
[1]
  Sum: 750
  C38ΔL1210: 300
  C38ΔCFU: 450
  Product: 3000

## CCCCCC(=O)OC1C(=O)OC2CC3C(C)=C(O)C(=O)CC3(C)C3C(O)C(O)C4(C(=O)OC)OCC23C14 (centres unmarked) [15-O-hexanoylbruceolide]
SK-N-AS; 1 h exposure
  % Kill, SK-N-AS: 0%
SK-N-AS; 24 h exposure
  % Kill, SK-N-AS: 41%
LS-174T; 1 h exposure
  % Kill, LS-174T: 19%
LS-174T; 24 h exposure
  % Kill, LS-174T: 57%
[1]
  Sum: 600
  C38ΔL1210: 400
  C38ΔCFU: 200
  Product: 600

## COC(=O)C12OCC34C(CC5C(C)=C(O)C(=O)CC5(C)C3C(O)C1O)OC(=O)C(OC(=O)Cc1ccccc1)C24 (centres unmarked) [15-O-phenylacetyl bruceolide]
SK-N-AS; 1 h exposure
  % Kill, SK-N-AS: 0%
SK-N-AS; 24 h exposure
  % Kill, SK-N-AS: 38%
LS-174T; 1 h exposure
  % Kill, LS-174T: 20%
LS-174T; 24 h exposure
  % Kill, LS-174T: 61%
[1]
  Sum: 1000
  C38ΔL1210: 500
  C38ΔCFU: 500
  Product: 4000

## CC1=CC(=O)[C@@H](O)[C@]2(C)[C@H]3[C@@]4(O)OC[C@]35[C@H]([C@@H](C)[C@H]4O)[C@@H](O)C(=O)O[C@@H]5C[C@@H]12 [Glaucarubolone, glaucarubolone]
L1210 (murine leukemia); dilution 1/100
  zone of inhibition, L1210: 0 units
L1210 (murine leukemia); dilution 1/1000
  zone of inhibition, L1210: 0 units
L1210 (murine leukemia); [7]
  zone of inhibition, L1210: 400 units
[1]; dilution 1/10
  zone of inhibition, Colon 38: >1000 units and 600 units
[1]; dilution 1/40
  zone of inhibition, Colon 38: 400 units
[1]; dilution 1/100
  zone of inhibition, Colon 38: 400 units
[1]; dilution 1/1000
  zone of inhibition, Colon 38: 0 units
[1]; [7]
  zone of inhibition, Colon 38: >1000 units
[1]
  Sum: 1150 and 800
  C38ΔL1210: 550 and 400
  C38ΔCFU: 600 and 400
  Product: 4600 and 3600
[2]; dilution 1/10
  zone of inhibition, H-116: 600 units
[2]; dilution 1/100
  zone of inhibition, H-116: 0 units
[2]; dilution 1/1000
  zone of inhibition, H-116: 0 units
[2]; [7]
  zone of inhibition, H-116: >1000 units
[3]; dilution 1/10
  zone of inhibition, H-125 M: 700 units
[3]; dilution 1/100
  zone of inhibition, H-125 M: 0 units
[3]; dilution 1/1000
  zone of inhibition, H-125 M: 0 units
[3]; [7]
  zone of inhibition, H-125 M: >1000 units
[4]; dilution 1/10
  zone of inhibition, CEM: 600 units
[4]; dilution 1/100
  zone of inhibition, CEM: 0 units
[4]; dilution 1/1000
  zone of inhibition, CEM: 0 units
[4]; [7]
  zone of inhibition, CEM: 900 units
Murine CFU-GM; dilution 1/10
  zone of inhibition, murine CFU-GM: 0 units
Murine CFU-GM; dilution 1/40
  zone of inhibition, murine CFU-GM: 0 units
Murine CFU-GM; dilution 1/100
  zone of inhibition, murine CFU-GM: 0 units
Murine CFU-GM; dilution 1/1000
  zone of inhibition, murine CFU-GM: 0 units
Murine CFU-GM; [7]
  zone of inhibition, murine CFU-GM: 50 units
HCT-116 cells [5]; HCT-116
  IC90/IC50: 58
HCT-116 cells [5]; Homo sapiens, 72 h, HCT-116, 3 days with compound, viable cells, by interpolation, read-out: IC50
  IC50: 0.04 µg/mL (≈ 0.101 µM)
HCT-116 cells [5]; Homo sapiens, 72 h, HCT-116, 3 days with compound, viable cells, by interpolation, read-out: IC90
  IC90: 2.3 µg/mL (≈ 5.83 µM)
HCT-116 cells [6]; HCT-116, 2 Hour Exposure
  Concentration Required for 10^−1 Survival Fraction: >10 μg/mL
HCT-116 cells [6]; HCT-116, 24 Hour Exposure
  Concentration Required for 10^−1 Survival Fraction: 1 × 10^0 μg/mL
HCT-116 cells [6]; HCT-116, Continuous Exposure
  Concentration Required for 10^−1 Survival Fraction: 2 × 10^−2 μg/mL
